Measurements from patent publication US10131643B2, “Tizoxanide carbamate and pharmaceutical use thereof” (priority 2013, dated 2018).
≈ marks a conversion by molar mass, not a printed value.

Assays:
[1] = oral administration in mice, in words; for Parameters such as Tmax, Cmax, MRT, AUC and relative bioavailability compared with nitazoxanide: calculated as tizoxanide
[2] = in vivo, cited from earlier work
PR8 influenza virus = PR8 influenza virus in MDCK cells; cited from earlier work
[3] = test system: Mycobacterium tuberculosis; details: cited from earlier work
[4] = rat, in vivo, po
Helicobacter pylori = details: 103 strains of Helicobacter pylori; cited from earlier work

Row | Structure (SMILES) | Parameters such as Tmax, Cmax, MRT, AUC and relative bioavailability compared with nitazoxanide [1] | Oral absorption compared with the control agent nitazoxanide (NTZ) [1] | also measured
1 | CN(C)C(=O)Oc1ccccc1C(=O)Nc1ncc([N+](=O)[O-])s1 [Compound 6] | significantly superior | much better | 
2 | CC(=O)Oc1ccccc1C(=O)Nc1ncc([N+](=O)[O-])s1 [NTZ, 2-acetoxy-N-(5-nitro-2-thiazolyl)benzamide] |  |  | Detection of the parent drug in plasma, urine, bile and feces ([2]; po): not detectable; Part of the oral dose excreted by feces [2]: about ⅔; Part of the oral dose excreted by urine [2]: about ⅓; EC50 (PR8 influenza virus): 1 µg/mL (≈ 3.25 µM); EC90 (PR8 influenza virus): 7 µg/mL (≈ 22.8 µM); Minimal inhibitory concentration (MIC), median value [3]: 16 µg/mL (≈ 52.1 µM); Absolute bioavailability [4]: 7.2%; 50% minimal inhibitory concentration (MIC50) (Helicobacter pylori): 1 µg/mL; 90% minimal inhibitory concentration (MIC90) (Helicobacter pylori): 4 µg/mL
3 | CN1CCN(C(=O)Oc2ccccc2C(=O)Nc2ncc([N+](=O)[O-])s2)CC1 [Compound 2, 2-(5-nitrothiazol-2-yl-carbamoyl)phenyl-4-methylpiperazine-1-carboxylate] | significantly superior | faster | 
4 | CCOC(=O)C1CCN(C(=O)Oc2ccccc2C(=O)Nc2ncc([N+](=O)[O-])s2)CC1 [Compound 5] | comparable | faster | 
5 | O=C(Nc1ncc([N+](=O)[O-])s1)c1ccccc1OC(=O)N1CCCC1 [Compound 4, 2-((5-nitrothiazol-2-yl)carbamoyl)phenyl-pyrrolidine-1-carboxylate] | significantly superior | much better | 
6 | O=C(Nc1ncc([N+](=O)[O-])s1)c1ccccc1OC(=O)N1CCOCC1 [Compound 1, 2-(5-nitrothiazol-2-yl-carbamoyl)phenylmorpholine-4-carboxylate] | significantly superior | much better | 
7 | O=C(Nc1ncc([N+](=O)[O-])s1)c1ccccc1OC(=O)N1CCCCC1 [Compound 3] | significantly superior | much better | 
8 | O=C(Nc1ncc([N+](=O)[O-])s1)c1ccccc1O [tizoxanide] |  |  | 50% minimal inhibitory concentration (MIC50) (Helicobacter pylori): 1 µg/mL; 90% minimal inhibitory concentration (MIC90) (Helicobacter pylori): 4 µg/mL
